Data set [1] is described as follows: Kinetic solubility in PBS pH 7.4. The class given is physicochemical. Conditions: PBS pH 7.4, 25 °C; for solubility at 2 h: sodium phosphate buffer (PBS), 25 °C, pH 7.4, aqueous buffer, kinetic from dmso stock. On the procedure:
One explanation for the high IC50 values (i.e., low activity) of the new compounds is their potential poor solubility in aqueous solution or inadequate lipophilicity. To investigate this hypothesis, we determined kinetic solubility in […] phosphate buffer at pH 7.4 (Table 1). […] The remaining two compounds, BE and 29, show low solubilities (<0.1 μM). […] Additionally, since approximately 95% of drugs are ionizable, assessment of lipophilicity at pH 7.4 (log D7.4) is essential during the initial phases of drug discovery. In this study, we employ the shake-flask method to evaluate this property. […] Because lipophilicity directly reflects compound–membrane interaction, the activity of these compounds against PANC-1 cells likely stems from their interaction with the cell membrane.
Solubility is determined in 100 mM sodium phosphate buffer (PBS), pH 7.4. The stock solutions of test compound and control compound progesterone are prepared in DMSO at a concentration of 10 mM. 30 µL of working solutions of each sample is placed in order into their proper 96-well rack. 970 µL of PBS pH 7.4 is added into each vial of the cap-less Solubility Sample plate. The assay is performed in duplicate. Add one stir stick to each vial and seal using a molded PTFE/Silicone plug. Then the Solubility Sample plate is transferred to the Eppendorf Thermomixer Comfort plate shaker and shaken at 25 °C at 1100 RPM for 2 h. After completion of the 2 h, plugs are removed and the stir sticks are removed using a big magnet, the samples from the Solubility Sample plate are transferred into the filter plate. Using the Vacuum Manifold, all the samples are filtered. Aliquot of 5 µL is taken from the filtrate, followed by addition of 5 µL DMSO and 490 µL of a mixture of H2O and acetonitrile (1:1 in v/v). 200 μL of diluent is transferred to a new 96-well plate for LC-MS/MS analysis (see SI Bioanalytical Method for Solubility Measurement). The dilution factor is changed according to the solubility values and the LC-MS signal response.
MRM) / -4500 v (negative MRM). […]
13. Bioanalytical Method for Solubility Measurement
MS analysis: Triple Quad TM 5500 instrument from AB Inc (Canada) with an ESI interface
Injection volume: 1 μL, 3 μL, 5 μL or 10 μL
Column: ACQUITY UPLC BEH C18 (2.1 × 50 mmI.D. S-1.7 μm, 12 nm) Column
Mobile phase: 0.1% Ammonium hydroxide solution in water (A) and 0.1% Ammonium hydroxide solution
Column: XSelect Hss T3 2.5μm (2.1 × 50 mm) Column XP
Mobile phase: 0.1% formic acid in water (A) and 0.1% formic acid in acetonitrile (B)

Data set [2] relates to PANC-1 cells. Put plainly: CCK-8 antiproliferative assay, PANC-1. Conditions: Homo sapiens, CCK-8, 72 h, mean of three independent experiments. The class given is cell-based. On the procedure:
The inhibitory activities against human pancreatic cancer PANC-1 cells of the synthesized compounds were evaluated by CCK-8 assay.
Human pancreatic cancer cell lines PANC-1, PATU8988T and BxPC3 were purchased from the Cancer Institute & Hospital of the Chinese Academy of Medical Sciences (Shanghai, China). All three cell lines were cultured in RPMI-DMEM medium containing 10% fetal bovine serum, cultured at a constant temperature of 37 °C in a humidified incubator with 5% CO2.
Pancreatic cancer cells are seeded into 96-well plates. After a proliferation time of 16 h, different concentrations of compounds are added into the corresponding wells and incubated for 72 h. 10 μL of CCK-8 solution is added into each well and incubated for 1–4 h at 37 °C. Shake the plates and read the OD value of each well at 450 nm on a microplate reader.

pIC50: −log10 of the molar value. ≈ marks a conversion by molar mass, not a printed value. Marks after values point to notes of the source that are not given here.

In general, solubility refers to the concentration that dissolves in the medium under given conditions. Lower therefore signals a poorly soluble substance. As usually defined, the pIC50 is the IC50 on a negative log10 scale, so that one unit is a factor of ten. `CCCCOc1ccc(-c2ccc(-c3ccc(Cn4cc(CCCCC[C@H]5OC(=O)CN(C)C(=O)/C=C/[C@@H](CN6CCN(C)CC6)NC(=O)CNC(=O)[C@@](C)(O)C(=O)[C@H]5C)nn4)cc3)cc2)cc1` [Compound 29]: the Solubility in data set [1] (2 h) is on record as <0.063 * µM. In addition, in data set [1], the solubility at 2 h is < 0.1 µM. Also, the negative-log IC50 (pIC50) in data set [2] was < 4.00.

Take `CC1C(=O)C(C)(O)C(=O)NCC(=O)NC(CN2CCN(C)CC2)C=CC(=O)N(C)CC(=O)OC1CCCCc1cn(CCCCCCCCNC(=N)N)nn1` (centres unmarked) [Compound 31]: the solubility at 2 h in data set [1] is 268 µM (≈ 207 µg/mL). For the same compound, the pIC50 in data set [2] is < 4.00.

In turn, `CCCCCCCCCCCCCC1OC(=O)CN(C)C(=O)C=CC(CN2CCN(C)CC2)NC(=O)CNC(=O)C(C)(O)C(=O)C1C` (centres unmarked) [BE-NMP] came in with a solubility at 2 h in data set [1] of 210 µM (≈ 139 µg/mL).

The compound `C[C@@H]1C(=O)[C@](C)(O)C(=O)NCC(=O)N[C@H](CN2CCN(C)CC2)/C=C/C(=O)N(C)CC(=O)O[C@H]1CCCCCc1cn(CCCCCCCNc2cccc3c2CN(C2CCC(=O)NC2=O)C3=O)nn1` (some centres unmarked) [Compound 40] displayed a solubility at 2 h in data set [1] of 259 µM (≈ 252 µg/mL). For the same compound, the negative-log IC50 (pIC50) in data set [2] is < 4.00.

The values above are taken from PMC12843137, “Fine-Tuning Side Chain Substitutions: Impacts on the Lipophilicity–Solubility–Permeability Interplay in Macrocyclic Peptides” (Marine Drugs, 2025).
